Broadly, the IC50 is the concentration needed to halve the response being measured. The low end stands for higher potency, the high end for lower potency.

Experimental findings from patent US20090291977A1, “Chromane Derivatives Useful As Acid Pump Antagonists” (priority 2004, published 2009) are described below.

The target in this test is T1, Porcine gastric H+/K+-ATPase (Sus scrofa, UniProt P19156).
T1 construct: The gastric vesicles were collected from interface on 0.25 M sucrose layer containing 7% Ficoll; from tissue; host or cells: mucous membrane of fresh porcine stomachs (gastric vesicles)
T1 sequence (P19156 2-1034 limits assumed): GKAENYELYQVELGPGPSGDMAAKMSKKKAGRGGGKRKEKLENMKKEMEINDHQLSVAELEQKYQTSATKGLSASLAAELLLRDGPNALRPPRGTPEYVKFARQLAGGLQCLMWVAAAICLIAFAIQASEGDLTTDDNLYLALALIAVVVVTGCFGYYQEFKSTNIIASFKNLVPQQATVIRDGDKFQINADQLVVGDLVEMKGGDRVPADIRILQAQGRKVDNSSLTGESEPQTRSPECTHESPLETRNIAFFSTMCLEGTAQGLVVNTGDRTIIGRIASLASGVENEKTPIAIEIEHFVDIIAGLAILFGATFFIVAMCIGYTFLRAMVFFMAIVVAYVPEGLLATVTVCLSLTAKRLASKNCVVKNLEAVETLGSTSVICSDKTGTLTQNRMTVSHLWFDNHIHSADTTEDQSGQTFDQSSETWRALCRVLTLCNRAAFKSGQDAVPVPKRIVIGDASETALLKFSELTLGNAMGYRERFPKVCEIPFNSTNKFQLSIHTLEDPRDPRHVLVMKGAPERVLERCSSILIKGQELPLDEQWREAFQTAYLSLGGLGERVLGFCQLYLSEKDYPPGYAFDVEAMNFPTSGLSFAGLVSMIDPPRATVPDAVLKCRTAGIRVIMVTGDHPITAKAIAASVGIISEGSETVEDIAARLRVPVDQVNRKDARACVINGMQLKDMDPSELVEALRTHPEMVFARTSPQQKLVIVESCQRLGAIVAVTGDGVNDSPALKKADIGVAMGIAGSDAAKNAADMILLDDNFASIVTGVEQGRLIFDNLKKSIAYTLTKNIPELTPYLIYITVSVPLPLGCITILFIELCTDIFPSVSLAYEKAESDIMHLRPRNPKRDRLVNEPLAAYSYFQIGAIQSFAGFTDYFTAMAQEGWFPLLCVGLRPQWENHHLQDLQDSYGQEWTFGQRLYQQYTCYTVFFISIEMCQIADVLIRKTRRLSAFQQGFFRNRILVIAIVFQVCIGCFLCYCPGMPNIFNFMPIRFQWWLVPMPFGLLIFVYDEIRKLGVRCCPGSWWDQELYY
T1 sequence (P18434 whole entry partner): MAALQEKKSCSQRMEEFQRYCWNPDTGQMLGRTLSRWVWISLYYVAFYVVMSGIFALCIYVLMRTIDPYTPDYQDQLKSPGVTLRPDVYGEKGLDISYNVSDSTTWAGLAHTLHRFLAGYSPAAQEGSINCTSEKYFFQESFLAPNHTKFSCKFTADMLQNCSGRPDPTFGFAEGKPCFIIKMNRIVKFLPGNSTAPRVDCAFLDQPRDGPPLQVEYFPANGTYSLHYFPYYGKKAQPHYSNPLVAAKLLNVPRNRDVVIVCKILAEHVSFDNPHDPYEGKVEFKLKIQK
Nature of the test: Ion-leaky porcine gastric H+/K+-ATPase inhibition. The conditions noted are these: ion-leaky vesicles, 5 mM KCl, pH 6.4, 37° C., 30 minutes. It is filed as biochemical. How it is done:
The porcine gastric vesicles for Porcine gastric H^+/K^+-ATPase inhibition assays were prepared from mucous membrane in fresh porcine stomachs by homogenization with a tight-fitted polytetrafluoroethylene (Teflone®) homogenizer in 0.25 M sucrose at 4° C. The crude pellet was removed with centrifugation at 20,000 g for 30 min. Then supernatant was centrifuged at 100,000 g for 30 min. The resulting pellet was re-suspended in 0.25 M sucrose, and then subjected to density gradient centrifugation at 132,000 g for 90 min. The gastric vesicles were collected from interface on 0.25 M sucrose layer containing 7% Ficoll™ PM400(Amersham Biosciences). This procedure was performed in a cold room.
Ion-leaky porcine gastric H^+/K^+-ATPase-inhibition was measured according to the modified method described in Biochemical Pharmacology, 1988, 37, 2231-2236.
The isolated vesicles were lyophilized, and then kept in deep-freezer until use. For enzyme assay, lyophilized vesicles were reconstituted with 3 mM MgSO4 containing 40 mM Bis-tris (pH 6.4 at 37° C.).
Enzyme reaction was performed incubating 5 mM KCl, 3 mM Na2ATP, 3 mM MgSO4 and 1.0 μg of reconstituted vesicles for 30 minutes at 37° C. in a final 60 μl of reaction mixture (40 mM Bis-tris, pH 6.4) with or without the test compound. Enzyme reaction was stopped by adding 10% sodium dodecyl sulphate (SDS). Released inorganic phosphate from ATP was detected by incubation with mixture of 1 part of 35 mM ammonium molybdate tetrahydrate in 15 mM Zinc acetate hydrate and 4 parts of 10% ascorbic acid (pH 5.0), resulting in phosphomolybdate, which has optical density at 750 nm.
`Cc1nc2c(NC3CCOc4cccc(F)c43)cc(C(=O)N(C)C)cn2c1C` (single isomer, unassigned) [Example 10-3, 8-[(5-Fluoro-3,4-dihydro-2H-chromen-4-yl)amino]-N,N,2,3-tetramethylimidazo[1,2-a]pyridine-6-carboxamide]: the midpoint of inhibition, the IC50, lay at 91 nM. `Cc1nc2c(NC3CCOc4cccc(F)c43)cc(C(=O)N(C)CCO)cn2c1C` (single isomer, unassigned) [Example 11-2, 8-[(5-Fluoro-3,4-dihydro-2H-chromen-4-yl)amino]-N-(2-hydroxyethyl)-N,2,3-trimethylimidazo[1,2-a]pyridine-6-carboxamide]: it took 53.8 nM to reach half-maximal inhibition (IC50).

The compound `Cc1nc2c(NC3CCOc4cccc(F)c43)cc(C(=O)N(C)CCO)cn2c1C` (single isomer, unassigned) [Example 11-3, 8-[(5-Fluoro-3,4-dihydro-2H-chromen-4-yl)amino]-N-(2-hydroxyethyl)-N,2,3-trimethylimidazo[1,2-a]pyridine-6-carboxamide] came in with an IC50 of 101 nM. For the compound `Cc1nc2c(NC3CCOc4ccc(F)cc43)cc(C(=O)N(C)C)cn2c1C` (single isomer, unassigned) [Example 12-2, 8-[(6-Fluoro-3,4-dihydro-2H-chromen-4-yl)amino]-N,N,2,3-tetramethylimidazo[1,2-a]pyridine-6-carboxamide], the IC50 was 197 nM. The figure for `Cc1nc2c(NC3CCOc4ccc(F)cc43)cc(C(=O)N(C)C)cn2c1C` (single isomer, unassigned) [Example 12-3, 8-[(6-Fluoro-3,4-dihydro-2H-chromen-4-yl)amino]-N,N,2,3-tetramethylimidazo[1,2-a]pyridine-6-carboxamide] is 81.1 nM; for `Cc1nc2c(NC3CCOc4ccc(F)cc43)cc(C(=O)N(C)CCO)cn2c1C` (single isomer, unassigned) [Example 13-2, 8-[(6-Fluoro-3,4-dihydro-2H-chromen-4-yl)amino]-N-(2-hydroxyethyl)-N,2,3-trimethylimidazol[1,2-a]pyridine-6-carboxamide] it is 1100 nM. The figure for `Cc1nc2c(NC3CCOc4ccc(F)cc43)cc(C(=O)N(C)CCO)cn2c1C` (single isomer, unassigned) [Example 13-3, 8-[(6-Fluoro-3,4-dihydro-2H-chromen-4-yl)amino]-N-(2-hydroxyethyl)-N,2,3-trimethylimidazol[1,2-a]pyridine-6-carboxamide] is 170 nM; for `Cc1nc2c(NC3CCOc4c(F)cccc43)cc(C(=O)N(C)C)cn2c1C` (single isomer, unassigned) [Example 14-2, 8-[(8-Fluoro-3,4-dihydro-2H-chromen-4-yl)amino]-N,N,2,3-tetramethylimidazo[1,2-a]pyridine-6-carboxamide] it is 120 nM. Compound `Cc1nc2c(NC3CCOc4c(F)cccc43)cc(C(=O)N(C)C)cn2c1C` (single isomer, unassigned) [Example 14-3, 8-[(8-Fluoro-3,4-dihydro-2H-chromen-4-yl)amino]-N,N,2,3-tetramethylimidazo[1,2-a]pyridine-6-carboxamide] displayed an IC50 of 170 nM. Regarding `Cc1nc2c(NC3CCOc4c(F)cccc43)cc(C(=O)N(C)CCO)cn2c1C` (single isomer, unassigned) [Example 15-2, 8-[(8-Fluoro-3,4-dihydro-2H-chromen-4-yl)amino]-N-(2-hydroxyethyl)-N,2,3-trimethylimidazol[1,2-a]pyridine-6-carboxamide], the IC50 is 230 nM. `Cc1nc2c(NC3CCOc4c(F)cccc43)cc(C(=O)N(C)CCO)cn2c1C` (single isomer, unassigned) [Example 15-3, 8-[(8-Fluoro-3,4-dihydro-2H-chromen-4-yl)amino]-N-(2-hydroxyethyl)-N,2,3-trimethylimidazol[1,2-a]pyridine-6-carboxamide] yielded an IC50 of 370 nM. For `Cc1ccc2c(c1)OCCC2Nc1cc(C(=O)N(C)CCO)cn2c(C)c(C)nc12` (single isomer, unassigned) [Example 16-2, N-(2-Hydroxyethyl)-N,2,3-trimethyl-8-[(7-methyl-3,4-dihydro-2H-chromen-4-yl)amino]imidazo[1,2-a]pyridine-6-carboxamide], it took 100 nM to reach half-maximal inhibition (IC50). In turn, `Cc1ccc2c(c1)OCCC2Nc1cc(C(=O)N(C)CCO)cn2c(C)c(C)nc12` (single isomer, unassigned) [Example 16-3, N-(2-Hydroxyethyl)-N,2,3-trimethyl-8-[(7-methyl-3,4-dihydro-2H-chromen-4-yl)amino]imidazo[1,2-a]pyridine-6-carboxamide] registered an IC50 of 180 nM. `Cc1cccc2c1C(Nc1cc(C(=O)N(C)C)cn3c(C)c(C)nc13)CCO2` (single isomer, unassigned) [Example 17-2, N,N,2,3-Tetramethyl-8-[(5-methyl-3,4-dihydro-2H-chromen-4-yl)amino]imidazo[1,2-a]pyridine-6-carboxamide] registered an IC50 of 43 nM. Regarding `Cc1cccc2c1C(Nc1cc(C(=O)N(C)C)cn3c(C)c(C)nc13)CCO2` (single isomer, unassigned) [Example 17-3, N,N,2,3-Tetramethyl-8-[(5-methyl-3,4-dihydro-2H-chromen-4-yl)amino]imidazo[1,2-a]pyridine-6-carboxamide], inhibition was half-maximal at 91 nM (IC50). For the compound `Cc1nc2c(NC3CCOc4cccc(Cl)c43)cc(C(=O)N(C)C)cn2c1C` (single isomer, unassigned) [Example 18-2, 8-[(5-Chloro-3,4-dihydro-2H-chromen-4-yl)amino]-N,N,2,3-tetramethylimidazo[1,2-a]pyridine-6-carboxamide], the IC50 was determined as 300 nM. In the case of `Cc1nc2c(NC3CCOc4cccc(Cl)c43)cc(C(=O)N(C)C)cn2c1C` (single isomer, unassigned) [Example 18-3, 8-[(5-Chloro-3,4-dihydro-2H-chromen-4-yl)amino]-N,N,2,3-tetramethylimidazo[1,2-a]pyridine-6-carboxamide], the IC50 stood at 240 nM. Regarding `Cc1nc2c(NC3CCOc4cccc(Cl)c43)cc(C(=O)N(C)CCO)cn2c1C` (single isomer, unassigned) [Example 19-2, 8-[(5-Chloro-3,4-dihydro-2H-chromen-4-yl)amino]-N-(2-hydroxyethyl)-N,2,3-trimethylimidazo[1,2-a]pyridine-6-carboxamide], 600 nM corresponded to half-maximal inhibition (IC50). On to `Cc1nc2c(NC3CCOc4cccc(Cl)c43)cc(C(=O)N(C)CCO)cn2c1C` (single isomer, unassigned) [Example 19-3, 8-[(5-Chloro-3,4-dihydro-2H-chromen-4-yl)amino]-N-(2-hydroxyethyl)-N,2,3-trimethylimidazo[1,2-a]pyridine-6-carboxamide], for which the IC50 was 500 nM. Next, `Cc1nc2c(NC3CCOc4ccccc43)cc(C(=O)N(C)C)cn2c1C` (single isomer, unassigned; (+)) [Example 1-3, (+)-8-(3,4-Dihydro-2H-chromen-4-ylamino)-N,N,2,3-tetramethylimidazo[1,2-a]pyridine-6-carboxamide]: 27.8 nM. `Cc1nc2c(NC3CCOc4ccccc43)cc(C(=O)N(C)CCO)cn2c1C` (single isomer, unassigned; (+)) [Example 2-3, (+)-8-(3,4-Dihydro-2H-chromen-4-ylamino)-N-(2-hydroxyethyl)-N,2,3-trimethylimidazo[1,2-a]pyridine-6-carboxamide] had an IC50 of 64 nM. Consider `Cc1nc2c(NC3COCc4ccccc43)cc(C(=O)N(C)C)cn2c1C` (single isomer, unassigned; (+)) [Example 3-3, (+)-8-(3,4-Dihydro-1H-isochromen-4-ylamino)-N,N,2,3-tetramethylimidazo[1,2-a]pyridine-6-carboxamide], for which 67.6 nM corresponded to half-maximal inhibition (IC50). In turn, `Cc1nc2c(NC3COCc4ccccc43)cc(C(=O)N(C)CCO)cn2c1C` (single isomer, unassigned; (+)) [Example 4-3, (+)-8-(3,4-Dihydro-1H-isochromen-4-ylamino)-N-(2-hydroxyethyl)-N,2,3-trimethylimidazo[1,2-a]pyridine-6-carboxamide] came in with an IC50 of 112 nM. For `Cc1nc2c(NC3CCOc4ccccc43)cc(C(=O)N(C)C)cn2c1C` (single isomer, unassigned; (-)) [Example 1-2, (−)-8-(3,4-Dihydro-2H-chromen-4-ylamino)-N,N,2,3-tetramethylimidazo[1,2-a]pyridine-6-carboxamide], the IC50 amounted to 61.9 nM. As to `Cc1nc2c(NC3CCOc4ccccc43)cc(C(=O)N(C)CCO)cn2c1C` (single isomer, unassigned; (-)) [Example 2-2, (−)-8-(3,4-Dihydro-2H-chromen-4-ylamino)-N-(2-hydroxyethyl)-N,2,3-trimethylimidazo[1.2-a]pyridine-6-carboxamide], the IC50 came out at 81.1 nM.

`Cc1nc2c(NC3COCc4ccccc43)cc(C(=O)N(C)C)cn2c1C` (single isomer, unassigned; (-)) [Example 3-2, (−)-8-(3,4-Dihydro-1H-isochromen-4-ylamino)-N,N,2,3-tetramethylimidazo[1,2-a]pyridine-6-carboxamide] gave an IC50 of 125 nM.
